# Assay results: PMC4744035, “In Vivo, In Vitro, and In Silico Characterization of Peptoids as Antimicrobial Agents” (PLoS ONE, 2016)
# Numbered stars: 1 amine (or outer) side, 2 acyl side, 3 side chain; on linkers, the order of the positions; unused ones are H or OH. Square brackets hold non-standard residues; d marks the D form. Peptide text beside a SMILES is read from it. X1 = CC(C)[C@H](C)N(CC(=O)[*:2])[*:1]; Nspe = C[C@H](NCC(=O)O)c1ccccc1; Nlys = NCCCCNCC(=O)O
# Legend:
# [1] = system: E. coli ATCC 35218; assay type: cell-based
# Description: MICs against B. subtilis and E. coli screening bacterial strains were determined using serial dilution in 96-well microtiter plates in accordance with CLSI M7-A6 protocols. Briefly, peptoid solution in cation-adjusted Mueller-Hinton broth was prepared by 2:1 serial dilution with a total volume of 50 µL per well. In experimental wells, 50 µL of bacterial inoculums (1 x 10^6 CFU/mL) were added to the peptoid solutions. Positive controls consisted of 50 µL inoculums added to 50 µL cation-adjusted Mueller-Hinton broth containing no peptoid, while negative controls contained only cation-adjusted Mueller-Hinton broth. […] Experiments were reproducible among three independent replicates, each consisting of two parallel trials.
# [2] = system: erythrocytes; assay: Hemolytic activity (HD10/HD50); assay type: cell-based
# Description: Table 1 Characteristics of antimicrobial peptoids, screened for activity against B. subtilis and E. coli bacterial strains. | column: HD10 / HD50
# [3] = system: K. pneumonia 63575 (ESBL); assay: microbe, parasite or virus in culture
# Description: (§1) The MICs of test agents were measured using a modified broth micro-dilution method in Difco Mueller Hinton medium, on a panel of bacterial pathogens that were both susceptible and resistant to common antibiotics (S1 File). Briefly, serial dilutions were performed in 0.01% acetic acid containing 0.2% bovine serum albumin at 10-fold the desired final concentration. Ten μL of the 10-fold concentrated test reagents were added to each well of a 96-well polypropylene microtitre plate containing 90 μL of Mueller Hinton media per well. Bacteria were added to the plate from an overnight culture at a final concentration of 2–7 x 10^5 CFU/mL and incubated overnight at 37°C. The MIC is defined as the concentration at which no growth was observed.
# (§2) Screening of peptoid antimicrobial activity against a panel of multidrug resistant superbugs was done according to the protocol described in the manuscript. The bacterial strains used in this panel included; P. aeruginosa PAO1 strain H103 [1], P. maltophilia ATCC#13637, S. aureus ATCC#25923 [1], E. faecalis ATCC#29212 [2], and E. cloacae 218R, constitutively expressing Class C chromosomal β-lactamase, were from the Hancock lab strains collection. An MRSA clinical isolate was kindly provided by Anthony Chow (Vancouver General Hospital, Vancouver, Canada). Two Klebsiella pneumoniae and two E. coli clinical isolates expressing extended spectrum β-lactamases (ESBL) were kindly provided by George Zhanel (Health Sciences Centre, Winnipeg, Canada). Vancomycin-resistant clinical isolates of Enterococcus faecalis and E. faecium were obtained from Ana M. Paccagnella (BC Centre for Disease Control, Vancouver, Canada). Three clinical isolates (#9, #198 and #213) of multi-drug resistant P. aeruginosa, were kindly provided by Carlos Kiffer (University of São Paulo, Brazil). […] Three P. aeruginosa clinical isolates of the Liverpool epidemic strain (LES) (H1027, H1030 and LES400) were all kindly provided by Craig Winstanley (University of Liverpool, UK). […] All tested bacterial strains were categorized as biohazard level 2 pathogens.
# [4] = system: P. aeruginosa H1027 (MDR); assay: microbe, parasite or virus in culture; conditions: H1027 (MDR)
# Description: as §1, §2
# [5] = system: E. faecalis F43559 (VRE); assay: microbe, parasite or virus in culture; conditions: F43559 (VRE)
# Description: as §1, §2
# [6] = system: E. coli 64771 (ESBL); assay: microbe, parasite or virus in culture; conditions: 64771 (ESBL)
# Description: as §1, §2
# [7] = system: S. aureus ATCC25923; assay: microbe, parasite or virus in culture; conditions: ATCC25923
# Description: as §1, §2
# [8] = system: P. aeruginosa 198 (MDR); assay: microbe, parasite or virus in culture; conditions: 198 (MDR)
# Description: as §1, §2
# [9] = system: P. aeruginosa H103 (wild type); assay: microbe, parasite or virus in culture; conditions: H103 (wild type)
# Description: as §1, §2
# [10] = system: S. aureus C623 (MRSA); assay: microbe, parasite or virus in culture; conditions: C623
# Description: as §1, §2
# [11] = system: E. faecalis W61950 (VRE); assay: microbe, parasite or virus in culture; conditions: W61950 (VRE)
# Description: as §1, §2
# [12] = system: P. aeruginosa 9 (MDR); assay: microbe, parasite or virus in culture; conditions: 9 (MDR)
# Description: as §1, §2
# [13] = system: P. aeruginosa LES400 (MDR); assay: microbe, parasite or virus in culture; conditions: LES400 (MDR)
# Description: as §1, §2
# [14] = system: K. pneumonia 61962 (ESBL); assay: microbe, parasite or virus in culture
# Description: as §1, §2
# [15] = system: E. cloacae 218R Class C β-lactamase; assay: microbe, parasite or virus in culture; conditions: 218R Class C β-lactamase
# Description: as §1, §2
# [16] = system: E. faecium mic80 (VRE); assay: microbe, parasite or virus in culture; conditions: mic80 (VRE)
# Description: as §1, §2
# [17] = system: P. maltophilia ATCC13637; assay: microbe, parasite or virus in culture; conditions: ATCC13637
# Description: as §1, §2
# [18] = system: E. faecium T62764 (VRE); assay: microbe, parasite or virus in culture; conditions: T62764 (VRE)
# Description: as §1, §2
# [19] = system: P. aeruginosa H1030 (MDR); assay: microbe, parasite or virus in culture; conditions: P. aeruginosa H1030 (MDR)
# Description: as §1, §2
# [20] = system: P. aeruginosa 213 (MDR); assay: microbe, parasite or virus in culture; conditions: 213 (MDR)
# Description: as §1, §2
# [21] = system: E. faecalis ATCC29212; assay: microbe, parasite or virus in culture; conditions: ATCC29212
# Description: as §1, §2
# [22] = system: E. coli 63103 (ESBL); assay: microbe, parasite or virus in culture; conditions: 63103 (ESBL)
# Description: as §1, §2
# [23] = system: NIH 3T3 cells; assay: Metabolic activity, MTS assay; assay type: cell-based, mouse
# Description: NIH 3T3 mouse fibroblast cells were cultured in complete Dulbecco’s Modified Eagle’s Media. A peptoid solution plate (100 µL per well) was prepared by serial dilution of aqueous peptoid stock solutions in Hank’s balanced salt solution. A day-old cell monolayer was washed thoroughly with Hank’s balanced salt solution and replenished with 100 µL Hank’s balanced salt solution per well. Peptoid solutions were transferred onto the day-old cell monolayers, which contained approximately 5000 cells per well. […] The average of six replicate trials is reported.
SMILES,MIC E. coli [1] [µM],HD10 (hemolytic activity) [2],HD50 (hemolytic activity) [2],MIC [3] [µg/mL],MIC [4] [µg/mL],MIC [5] [µg/mL],MIC [6] [µg/mL],MIC [7] [µg/mL],MIC [8] [µg/mL],MIC [9] [µg/mL],MIC [10] [µg/mL],MIC [11] [µg/mL],MIC [12] [µg/mL],MIC [13] [µg/mL],MIC [14] [µg/mL],MIC [15] [µg/mL],MIC [16] [µg/mL],MIC [17] [µg/mL],MIC [18] [µg/mL],MIC [20] [µg/mL],other results
"C[C@H](NCC(=O)N(CC(=O)N(CCCCN)CC(=O)N(CC(=O)N(CCCCN)CC(=O)N(CC(=O)N(CCCCN)CC(=O)N(CC(=O)N(CC(=O)N(CC(=O)N(CC(=O)N(CCCCN)CC(N)=O)[C@@H](C)c1ccccc1)[C@@H](C)c1ccccc1)[C@@H](C)c1ccccc1)[C@@H](C)c1ccccc1)[C@@H](C)c1ccccc1)[C@@H](C)c1ccccc1)[C@@H](C)c1ccccc1)c1ccccc1 [Peptoid 1scr, H-(Nspe)2-(NLys-Nspe)3-(Nspe)3-NLys-NH2] (H-[Nspe][Nspe][Nlys][Nspe][Nlys][Nspe][Nlys][Nspe][Nspe][Nspe][Nspe][Nlys]-NH2)",6.3,64,> 200,64,4,8,16,8,32,16,8,32,256,16,128,32,8,2,2,16,"MIC [19]: 64 µg/mL; MIC [21]: 8 µg/mL; MIC [22]: 64 µg/mL; ID50 (inhibitory dose, metabolic activity) [23]: 8.5 µM"
"CC(C)[C@H](C)N(CC(=O)N(CCCCN)CC(=O)N(CC(=O)N(CC(=O)N(CCCCN)CC(=O)N(CC(=O)N(CC(=O)N(CCCCN)CC(=O)N(CC(=O)N(CC(N)=O)[C@@H](C)c1ccccc1)[C@@H](C)c1ccccc1)[C@@H](C)C(C)C)[C@@H](C)C(C)C)[C@@H](C)c1ccccc1)[C@@H](C)c1ccccc1)C(=O)CN(C(=O)CNCCCCN)[C@@H](C)C(C)C [1-Nsdp2,3,8,9, H-(NLys-Nsdp-Nsdp-NLys-Nspe-Nspe)2-NH2] (H-[Nlys][X1][X1][Nlys][Nspe][Nspe][Nlys][X1][X1][Nlys][Nspe][Nspe]-NH2)",12.5,77,> 200,32,2,16,8,4,32,8,4,16,256,8,32,8,4,1,1,8,"MIC [19]: 8 µg/mL; MIC [21]: 4 µg/mL; MIC [22]: 16 µg/mL; ID50 (inhibitory dose, metabolic activity) [23]: 19 µM"
"C[C@@H](c1ccccc1)N(CC(N)=O)C(=O)CN(Cc1ccccc1)C(=O)CN(CCCCN)C(=O)CN(Cc1ccccc1)C(=O)CN(Cc1ccccc1)C(=O)CN(CCCCN)C(=O)CN(Cc1ccccc1)C(=O)CN(Cc1ccccc1)C(=O)CN(CCCCN)C(=O)CN(Cc1ccccc1)C(=O)CN(Cc1ccccc1)C(=O)CNCCCCN [Peptoid 1ach-Nspe12, H-(NLys-Npm-Npm)3-(NLys-Npm-Nspe)-NH2]",6.3,164,> 200,32,1,16,4,4,8,4,8,16,64,4,128,16,4,1,1,4,"MIC [19]: 32 µg/mL; MIC [21]: 8 µg/mL; MIC [22]: 16 µg/mL; ID50 (inhibitory dose, metabolic activity) [23]: 15 µM"
"C[C@H](NCC(=O)N(CCCCN)CC(=O)N(CC(=O)N(CCCCN)CC(=O)N(CCCCN)CC(=O)N(CC(=O)N(CC(=O)N(CCCCN)CC(=O)N(CC(=O)N(CCCCN)CC(=O)N(CCCCN)CC(=O)N(CC(N)=O)[C@@H](C)c1ccccc1)[C@@H](C)c1ccccc1)[C@@H](C)c1ccccc1)[C@@H](C)c1ccccc1)[C@@H](C)c1ccccc1)c1ccccc1 [1B-NLys4,10, H-(Nspe-NLys-Nspe-NLys-NLys-Nspe)2-NH2] (H-[Nspe][Nlys][Nspe][Nlys][Nlys][Nspe][Nspe][Nlys][Nspe][Nlys][Nlys][Nspe]-NH2)",50,>200 / >200,>200 / >200,128,0.25,256,32,256,32,4,256,256,128,16,256,32,32,0.25,16,16,"MIC [21]: 256 µg/mL; MIC [22]: 128 µg/mL; ID50 (inhibitory dose, metabolic activity) [23]: 83 µM"
